# Literature values, collected in US20110052727A1, “Anti Influenza Nutritional Supplements” (priority 2009, published 2011).
# Tested on: lung-adapted PR-8 virus
# Settings: mouse, in vivo
smiles,measurement,value
"O=C/C=C/c1ccccc1 [CA, trans-cinnamaldehyde]",virus yield reduction in bronchoalveolar lavage fluid,1 log
